Measured values taken from US10562857B2 (AFASCI, Inc., priority 2015, dated 2020).
“Also recorded” adds a separate entry of the source.

How the values were obtained:
SNI rats [1] = assay: Spared nerve injury (SNI) rats, von Frey monofilament test; type: in vivo, rat; details: for start of drug action post-injection: 30 mg/kg I.P., thermal and mechanical thresholds; for mechanical pain threshold of left hindpaw (allodynia): 30 mg/kg, 1 mL I.P.
Experimental: FIG. 3B. Mechanical pain threshold assessment (von Frey monofilament test) of SNI rats' left hindpaws. Each SNI rat received either EXAMPLE-106, -107, and -115 (each 30 mg/kg, 1 mL I.P.), or vehicle (1 mL I.P. 2% DMSO in 0.5% HPC). Sham rats also received vehicle I.P. injections. […] The sham-vehicle serves as a positive control. Thermal and mechanical pain responses were measured once every hour for 8 consecutive hours after I.P. treatment (n=8 rats per treatment group).
FIG. 4. Mechanical pain threshold assessment (von Frey monofilament test) of left hindpaws in another cohort of SNI rats. Each SNI rat received either EXAMPLE-128, -130, -132, or Z944 (as a reference compound, each 10 mg/kg, 2 mL oral gavage, P.O.). […] Mechanical pain responses were measured at pre-dosing, 1, 2, 4, and 6 hours post-treatment using von Frey monofilament test (n=8 rats per group).
(§1) In additional examples shown here, the analgesic effects were further evaluated in another rat species. Baseline thermal and mechanical thresholds of male rats (Sprague-Dawley rats, 275 g-325 g, Harlan) were taken prior to surgery; baseline thresholds were measured on the rats' left hindpaws. Thirty-two rats underwent the SNI surgery on their left hind leg; 8 rats underwent surgery without injury of the nerves as a sham group. Two weeks post-surgery, the thermal thresholds of each rat were reassessed. […] Each rat received either EXAMPLE-106, -107, -115 (each 30 mg/kg, 1 mL I.P.), or vehicle (2% DMSO in 0.5% HPC). Thermal and mechanical thresholds were measured at 1, 2, 3, 4, 5, 6, 7, and 8 hours post-treatment/dosing. […] The drug actions started around 1 hour post-injection and peaked between 2 and 3 hours, and the drug effects gradually declined to pre-treatment levels over 6-7 hours (FIGS. 3A and B).
In another cohort of SNI rats ((n=8 per group)), mechanical thresholds were measured at pre-dosing, 1, 2, 4, and 6 hours post-treatment using von Frey monofilament test.

SNI rats [2] = assay: Spared nerve injury (SNI) rats, Hargreaves thermal test; type: in vivo, rat; details: 30 mg/kg, 1 mL I.P.
Experimental: FIG. 3A. Spared Nerve Injury (SNI) rats' left hindpaw withdrawal latencies in response to thermal stimulation (Hargreaves test). Each SNI rat received either EXAMPLE-106, 107, or 115, (each 30 mg/kg, 1 mL I.P.), or vehicle (2% DMSO in 0.5% HPC). Sham rats also received vehicle I.P. injections. […] 40 seconds were cutoff in order to prevent tissue damage. The sham-vehicle serves as a positive control (n=8 per treatment group).
as §1

SNI mice [3] = assay: Spared nerve injury (SNI) mice, Hargreaves thermal test; type: in vivo, mouse; details: 30 mg/kg, 0.2 mL I.P.
Experimental: FIG. 1A. Examples of compounds that mitigate neuropathic pain induced by Spared Nerve Injury (SNI) in mice. The withdrawal latencies of the mice's left hindpaws (injured site) in response to thermal stimulation (Hargreaves test). Each SNI mouse received either EXAMPLE (EX)-11, -14, -38, -62, or 113, or gabapentin, as benchmark (each 30 mg/kg, 0.2 mL I.P.), or vehicle (0.2 mL I.P. 2% DMSO in 0.5% Hydroxyl Propyl Cellulose, HPC). […] 40 seconds were cut off in order to prevent tissue damage (n=8 per group).
(§2) T-channel specific inhibitors are not yet available for clinical treatment of neuropathic pain. The spared nerve injury (SNI) model, one of the reliable neuropathic pain models in mice and rats (Decosterd and Woolf, 2000), was used to assess the effects of the representative compounds.
(§3) Of the three branches of the sciatic nerve, the tibial and common peroneal nerves of the mice (C57BL/6, male, 25-30 g, Harlan) were cut and ligated, leaving the sural nerve intact. Pre-surgery baselines (100%) of the thermal and mechanical pain thresholds of the ipsilateral hind paws were measured using the Hargreaves thermal stimulator (Hargreaves et al., 1988) and von Frey hair monofilaments (up-down method, Chaplan et al., 1994), respectively. Mice underwent the SNI surgery on their left hind leg. Two weeks post-surgery, the thermal thresholds of each mouse were reassessed.
(§4) EXAMPLE-11, 14, 38, 62, or 113 (FIGS. 1A and B) and EXAMPLE-12, 16, 19, 39, or 44 (FIGS. 2A and B) were administered at 30 mg/kg (0.2 mL I.P.) in a vehicle (pure DMSO to dissolve the powder first and then add 0.5% Hydroxyl Propyl Cellulose, HPC, to contain 2% DMSO in injection solution). All drug solutions used the same vehicle, unless specified otherwise.

CFA mice = assay: Complete Freund's Adjuvant (CFA)-induced inflammatory pain in mice, von Frey test; type: in vivo, mouse
Experimental: FIG. 7. Effects of EXAMPLE-96, 107 or 115 (each 30 mg/kg, I.P.) or gabapentin (as a benchmark, 100 mg/kg, I.P) on Complete Freund's Adjuvant (CFA)-induced inflammation in male, mice (C57BL/6, ˜2 months old; n=8 mice per group). Mechanical pain threshold assessment of CFA mice's left hindpaws were measured using von Frey monofilament test at 0.5, 1, 2, 4, and 6 hours after treatment.
Because knockout or antisense knockdown of the Cav3.2 isoform produces analgesic effects in neuropathic pain as well as in inflammatory pain in mice (Choi et al., 2007), we used the Complete Freund adjuvant (CFA)-inflammatory pain in mice to investigate the drug effects. EXAMPLE-96, -115, and -107 (each at 30 mg/kg, I.P.) and a reference gabapentin (100 mg/kg, I.P.) was individually administered to mice that had CFA-induced inflammation on their left hindpaws.

SNI mice [4] = assay: Spared nerve injury (SNI) mice, von Frey monofilament test; type: in vivo, mouse; details: 30 mg/kg, 0.2 mL I.P.
Description: FIG. 1B. Mechanical pain threshold assessment (using von Frey monofilament test) of the same cohort of SNI mice's left hindpaws.
as §2, §3, §4

Cav3.2 channel = target: T1, Cav3.2 channel (Homo sapiens, UniProt O95180); assay: Whole-cell patch clamp of T-type Cav3.2 channel expressed in HEK293 cells; type: cell-based; details: for IC50: Table 1, tested at at least 4 concentrations, read-out: IC50; for inhibition at 1 µM: HEK293, Table 1 primary screening
T1 construct: expressed in transfected cells; host or cells: HEK-293, tetracycline inducible expression system (Invitrogen)
T1 sequence (O95180 whole entry): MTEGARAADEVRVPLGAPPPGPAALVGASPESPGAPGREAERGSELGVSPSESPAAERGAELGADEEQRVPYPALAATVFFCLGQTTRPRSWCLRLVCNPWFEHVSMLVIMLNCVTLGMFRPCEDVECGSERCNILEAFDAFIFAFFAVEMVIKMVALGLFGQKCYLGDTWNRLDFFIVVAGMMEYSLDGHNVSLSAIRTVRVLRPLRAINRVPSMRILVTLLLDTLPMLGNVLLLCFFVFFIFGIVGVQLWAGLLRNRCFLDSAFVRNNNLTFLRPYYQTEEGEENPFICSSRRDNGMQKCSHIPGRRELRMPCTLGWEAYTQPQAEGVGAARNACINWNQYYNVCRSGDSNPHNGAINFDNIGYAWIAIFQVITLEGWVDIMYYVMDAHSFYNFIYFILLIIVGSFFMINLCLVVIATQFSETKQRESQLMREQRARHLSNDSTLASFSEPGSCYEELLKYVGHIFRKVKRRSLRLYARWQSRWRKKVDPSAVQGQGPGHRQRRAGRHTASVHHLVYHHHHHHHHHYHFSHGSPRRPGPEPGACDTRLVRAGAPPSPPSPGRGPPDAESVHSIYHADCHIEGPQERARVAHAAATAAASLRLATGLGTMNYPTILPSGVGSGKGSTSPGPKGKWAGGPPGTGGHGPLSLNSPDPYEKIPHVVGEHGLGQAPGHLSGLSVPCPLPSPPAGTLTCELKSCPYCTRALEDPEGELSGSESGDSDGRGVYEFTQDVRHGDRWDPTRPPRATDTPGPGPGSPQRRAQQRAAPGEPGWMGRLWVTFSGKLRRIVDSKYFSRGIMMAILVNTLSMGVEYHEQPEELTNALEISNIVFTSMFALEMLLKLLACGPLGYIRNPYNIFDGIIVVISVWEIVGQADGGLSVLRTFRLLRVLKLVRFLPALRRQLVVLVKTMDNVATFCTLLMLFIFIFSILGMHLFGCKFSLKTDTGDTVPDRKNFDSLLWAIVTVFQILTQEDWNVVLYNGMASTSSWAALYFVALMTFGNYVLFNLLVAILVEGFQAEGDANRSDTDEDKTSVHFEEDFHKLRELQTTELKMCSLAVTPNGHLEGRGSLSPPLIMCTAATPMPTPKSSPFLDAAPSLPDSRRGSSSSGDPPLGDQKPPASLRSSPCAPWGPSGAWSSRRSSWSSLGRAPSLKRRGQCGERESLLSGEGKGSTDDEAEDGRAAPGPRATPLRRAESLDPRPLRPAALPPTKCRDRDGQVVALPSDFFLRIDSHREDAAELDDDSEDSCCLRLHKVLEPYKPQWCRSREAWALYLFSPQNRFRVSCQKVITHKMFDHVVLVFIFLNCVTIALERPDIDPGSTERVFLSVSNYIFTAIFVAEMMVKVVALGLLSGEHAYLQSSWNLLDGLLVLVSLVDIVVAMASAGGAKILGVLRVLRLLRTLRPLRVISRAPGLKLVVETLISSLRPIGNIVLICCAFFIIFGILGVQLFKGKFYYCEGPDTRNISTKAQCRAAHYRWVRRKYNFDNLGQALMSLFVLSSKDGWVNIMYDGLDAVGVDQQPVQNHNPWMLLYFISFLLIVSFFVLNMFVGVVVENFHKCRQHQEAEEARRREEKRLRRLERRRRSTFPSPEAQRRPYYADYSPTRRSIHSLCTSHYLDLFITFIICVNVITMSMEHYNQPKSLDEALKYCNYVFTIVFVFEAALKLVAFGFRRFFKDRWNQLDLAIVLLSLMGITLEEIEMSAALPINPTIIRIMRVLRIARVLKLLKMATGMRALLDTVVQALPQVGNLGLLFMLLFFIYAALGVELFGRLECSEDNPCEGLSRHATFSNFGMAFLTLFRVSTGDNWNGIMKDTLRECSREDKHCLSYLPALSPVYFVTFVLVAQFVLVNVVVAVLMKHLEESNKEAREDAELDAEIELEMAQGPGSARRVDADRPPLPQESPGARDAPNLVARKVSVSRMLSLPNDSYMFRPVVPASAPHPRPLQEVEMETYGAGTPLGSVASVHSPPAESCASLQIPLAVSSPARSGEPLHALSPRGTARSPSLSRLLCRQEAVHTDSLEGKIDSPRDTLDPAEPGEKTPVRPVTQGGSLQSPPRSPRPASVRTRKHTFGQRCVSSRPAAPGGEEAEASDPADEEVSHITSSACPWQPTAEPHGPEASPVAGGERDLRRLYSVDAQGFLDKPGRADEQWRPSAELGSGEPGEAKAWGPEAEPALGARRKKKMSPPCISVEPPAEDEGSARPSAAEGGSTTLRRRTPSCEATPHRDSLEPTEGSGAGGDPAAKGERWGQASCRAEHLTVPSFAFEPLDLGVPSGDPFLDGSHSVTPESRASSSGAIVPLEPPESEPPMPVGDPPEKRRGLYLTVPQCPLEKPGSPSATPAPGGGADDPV

[5] = tested on: taxol-induced neuropathic pain model in mice; assay: Taxol-induced neuropathic pain in mice, von Frey test; type: in vivo, mouse; details: 30 mg/kg I.P.
Experimental: FIG. 6A. Effects of EXAMPLE-115 on taxol (4 mg/kg, I.P.)-induced neuropathic pain model in mice. Mechanical pain thresholds of left hindpaws were assessed using von Frey monofilament test. Each mouse received either EXAMPLE-115 (3, 10 or 30 mg/kg, I.P.) or vehicle (2% DMSO in 0.5% HPC, I.P.; n=8 per group). Injection of taxol lowered mechanical pain thresholds.
FIG. 6B. Effects of EXAMPLE-123 on taxol (4 mg/kg, I.P.)-induced neuropathic pain model in a separate cohort of mice. Mechanical pain thresholds of left hindpaws were assessed using von Frey monofilament test. Each mouse received either EXAMPLE-123 (30 mg/kg, I.P., n=8) or vehicle (2% DMSO in 0.5% HPC, I.P.).
Chemotherapy-induced painful neuropathy is a common side effect associated with chronic treatment with Taxol (paclitaxel) or other anticancer drugs based on cytotoxicity. Taxol or paclitaxel is one of the most popular drugs used for the treatment of various cancers (Chaudhry et al., 1994). The chemotherapy-induced peripheral neuropathy manifests as chronic hyperalgesia and other sensory abnormalities. Taxol (Sigma, 4.0 mg/kg, I.P.) was dissolved in saline containing 5% DMSO (vehicle) and injected to mice (freshly prepared before injection).

Structure (SMILES): O=C(CN1CCC(CNCC(=O)c2ccc[nH]2)CC1)Nc1ccccc1 [Example 106, 2-(4-(((2-Oxo-2-(1H-pyrrol-2-yl)ethyl)amino)methyl)piperidin-1-yl)-N-phenylacetamide]
- start of drug action post-injection (SNI rats [1]): around 1 hour
- mechanical pain threshold of left hindpaw (allodynia) (SNI rats [1]): elevated both thermal and mechanical thresholds; also recorded: reduced allodynia
- left hindpaw withdrawal latency to thermal stimulation (hyperalgesia) (SNI rats [2]): elevated both thermal and mechanical thresholds; also recorded: reduced hyperalgesia

Structure (SMILES): NCC1(CC(=O)O)CCCCC1 [gabapentin, reference compound]
- left hindpaw withdrawal latency to thermal stimulation (hyperalgesia) (SNI mice [3]): reduced hyperalgesia
- mechanical pain threshold, CFA-induced inflammation (CFA mice; 100 mg/kg I.P.): showed an analgesic effect in mechanical pain
- mechanical pain threshold of left hindpaw (allodynia) (SNI mice [4]): reduced allodynia

Structure (SMILES): COc1ccc(CCN2CCC3(CC2)CC3NC(=O)c2cc(Cl)cc(Cl)c2)cc1 (stereo not shown) [Example 44, 3,5-Dichloro-N-(6-(4-methoxyphenethyl)-6-azaspiro[2.5]octan-1-yl)benzamide]
- left hindpaw withdrawal latency to thermal stimulation (hyperalgesia) (SNI mice [3]): produced analgesic effects; also recorded: reduced hyperalgesia
- mechanical pain threshold of left hindpaw (allodynia) (SNI mice [4]): produced analgesic effects; also recorded: reduced allodynia
- IC50 (Cav3.2 channel): 100 nM

Structure (SMILES): O=C(CNc1ccccc1)Nc1nnc(-c2ccccc2)o1 [Example 123, N-(5-Phenyl-1,3,4-oxadiazol-2-yl)-2-(phenylamino)acetamide]
- duration of reduction of taxol-induced neuropathic pain [5]: at least 5 hours
- mechanical pain threshold, taxol-induced neuropathic pain ([5]; taxol 4 mg/kg I.P.): caused significant effects on Taxol-induced pain; also recorded: reduced the taxol-induced neuropathic pain
- IC50 (Cav3.2 channel): 5100 nM

Structure (SMILES): CC(C)(C)NC(=O)CN1CCC2(CC1)CC2NC(=O)c1cc(C(F)(F)F)cc(C(F)(F)F)c1 (stereo not shown) [Example 16, N-(6-(2-(tert-Butylamino)-2-oxoethyl)-6-azaspiro[2.5]octan-1-yl)-3,5-bis(trifluoromethyl)benzamide]
- left hindpaw withdrawal latency to thermal stimulation (hyperalgesia) (SNI mice [3]): produced analgesic effects; also recorded: reduced hyperalgesia
- mechanical pain threshold of left hindpaw (allodynia) (SNI mice [4]): produced analgesic effects; also recorded: reduced allodynia
- IC50 (Cav3.2 channel): 120 nM

Structure (SMILES): CC(C)(C)NC(=O)CN1CCC(CNC(=O)c2ccccc2)CC1 [Example 96, N-((1-(2-(tert-Butylamino)-2-oxoethyl)piperidin-4-yl)methyl)benzamide]
- mechanical pain threshold, CFA-induced inflammation (CFA mice; 30 mg/kg I.P.): showed an analgesic effect in mechanical pain
- inhibition at 1 µM (Cav3.2 channel): 40%

Structure (SMILES): CC(C)(C)OCCN1CCC2(CC1)CC2NC(=O)c1cc(Cl)cc(Cl)c1 (stereo not shown) [Example 38, N-(6-(2-(tert-Butoxy)ethyl)-6-azaspiro[2.5]octan-1-yl)-3,5-dichlorobenzamide]
- left hindpaw withdrawal latency to thermal stimulation (hyperalgesia) (SNI mice [3]): produced analgesic effects; also recorded: reduced hyperalgesia
- mechanical pain threshold of left hindpaw (allodynia) (SNI mice [4]): produced analgesic effects; also recorded: reduced allodynia
- IC50 (Cav3.2 channel): 40 nM

Structure (SMILES): CC(C)(C)NC(=O)CN1CCC2(CC[C@H]2NC(=O)c2cc(Cl)cc(Cl)c2)CC1 [Example 113, (R)—N-(7-(2-(tert-Butylamino)-2-oxoethyl)-7-azaspiro[3.5]nonan-1-yl)-3,5-dichlorobenzamide]
- left hindpaw withdrawal latency to thermal stimulation (hyperalgesia) (SNI mice [3]): produced analgesic effects; also recorded: reduced hyperalgesia
- mechanical pain threshold of left hindpaw (allodynia) (SNI mice [4]): produced analgesic effects; also recorded: reduced allodynia
- IC50 (Cav3.2 channel): 640 nM

Structure (SMILES): CC(C)CN1CCC2(CC1)CC2NC(=O)c1cc(Cl)cc(Cl)c1 (stereo not shown) [Example 11, 3,5-Dichloro-N-(6-isobutyl-6-azaspiro[2.5]octan-1-yl)benzamide]
- left hindpaw withdrawal latency to thermal stimulation (hyperalgesia) (SNI mice [3]): produced analgesic effects; also recorded: reduced hyperalgesia
- mechanical pain threshold of left hindpaw (allodynia) (SNI mice [4]): produced analgesic effects; also recorded: reduced allodynia
- IC50 (Cav3.2 channel): 420 nM

Structure (SMILES): CC1(CNC(=O)c2ccccc2)CCN(CC(=O)NC(C)(C)C)CC1 [Example 107, N-((1-(2-(tert-butylamino)-2-oxoethyl)-4-methylpiperidin-4-yl)methyl)benzamide]
- start of drug action post-injection (SNI rats [1]): around 1 hour
- mechanical pain threshold of left hindpaw (allodynia) (SNI rats [1]): elevated both thermal and mechanical thresholds; also recorded: reduced allodynia
- mechanical pain threshold, CFA-induced inflammation (CFA mice; 30 mg/kg I.P.): showed an analgesic effect in mechanical pain
- left hindpaw withdrawal latency to thermal stimulation (hyperalgesia) (SNI rats [2]): elevated both thermal and mechanical thresholds; also recorded: reduced hyperalgesia
- inhibition at 1 µM (Cav3.2 channel): 21%
